Source: patent US5292521A, “Solid oral preparation containing a pyrrolidine derivative with a catechol group” (priority 1990, dated 1994)
Read-outs that look alike come from different tables or passages of the source.

Key:
[1] = Oral administration to fasted beagles with ascorbic, citric or tartaric acid, plasma drug disposition parameters (Experimental Example 3); assay type: in vivo; settings: for AUC(0-t) at 6 h / Cmax / Tmax: dog, plasma, po, 3 mg/kg, n=4; for AUC(0-t) at 6 h: read-out: AUC (0-6 hr) mean ± SE; for Cmax: read-out: Cmax mean ± SE; for Tmax: read-out: Tmax mean ± SE (converted)
Source text: Compound (IX) and ascorbic acid, citric acid or tartaric acid were weighed, pulverized thoroughly and mixed together in an agate mortar. The mixture was divided into portions and filled in gelatin capsules (No. 1 or No. 00) and the gap in each capsule was further filled with lactose to obtain a sample. Separately, compound (IX) was formulated into a powder of five-fold dilution with lactose and filled in capsules in a similar manner to that described above to obtain a control sample.
The dose of compound (IX) was adjusted to 3 mg/kg in all the cases, while that of ascorbic acid was adjusted to three levels, i.e. 3 mg/kg, 9 mg/kg and 15 mg/kg and that of each of citric acid and tartaric acid was adjusted to one level of 15 mg/kg.
(§1) (a) Administration and collection of blood sample
The capsule of compound (IX) was given to each of 4 beagles (average body weight 9.53 kg) together with 30 ml of water by oral administration after fasting overnight (14 hours). The experiment was conducted by the crossover administration method while the beagles were kept fasting.
An internal standard substance (IS 50 ng in 50 μl) was added to 1 ml of blood plasma. After extraction with 5 ml of ethyl acetate, the solvent was distilled off. 100 μl of a citrate buffer solution (pH 3.5) was added thereto to form a solution again, which was washed with 1 ml of diethyl ether. The lower layer was separated and 50 μl of methanol was added thereto. 50 to 100 μl thereof was injected into an instrument for high-performance liquid chromatography (HPLC) for determination. Separately, blood plasma containing known amounts of compound (IX) and IS was treated to prepare an addition/recovery calibration curve. The concentration was determined from the ratio of the peak height of compound (IX) to that of IS. The detection limit in this method was 0.2 ng/ml of plasma.
(§2) (c) HPLC determination conditions
A HPLC pump used was CCPD mfd. by Toyo Soda Mfg. Co., Ltd. 1.5 ml/min of a citrate buffer (pH 3.5)/methanol mixture 80:1 (V/V) was introduced therein. The sample was injected into the instrument with a WISP 710B auto-sampler mfd. by Waters at intervals of about 50 minutes. A reversed phase Nucleosil (trade name) 7C6H5 column (4.6×250 mm) with a prefilter was used as the analysis column. The detector used was an ECD-100 electrochemical detector mfd. by Acome. The voltage was +650 mV (against a SEC electrode).
The citrate buffer solution (pH 3.5) was prepared by dissolving 26.25 g of citric acid, 16.58 g of anhydrous sodium acetate, 12.25 g of sodium hydroxide, 0.8375 g of disodium ethylenediaminetetraacetate, 93.8 ml of glacial acetic acid and 35.9 ml of 60% perchloric acid in 2500 ml of distilled water.
The AUC value in the period of 0 to 6 hours was determined from each of these curves. The results are given in FIG. 6, which is a bar graph for the comparison of the AUC values of the respective samples.

[2] = Oral administration to fasted beagles with L-cysteine or L-aspartic acid, plasma drug disposition parameters (Experimental Example 4); assay type: in vivo; settings: for AUC(0-t) at 8 h / Cmax / Tmax: dog, plasma, po, 3 mg/kg; for AUC(0-t) at 8 h: read-out: AUC (0-8 hr) mean ± SE; for Cmax: read-out: Cmax mean ± SE; for Tmax: read-out: Tmax mean ± SE
Procedure: A similar mixture to that described above was prepared except that L-cysteine was replaced by 350 mg of L-aspartic acid.
as §1
An internal standard substance (IS 20 ng in 200 μl) was added to 1 ml of blood plasma. After dilution with 2 ml of water, the aqueous solution was passed through a BONDELUTE (trade name) C18 column previously washed with 3 ml of methanol containing 0.1% of acetic acid and 9 ml of water. After further washing with 9 ml of water and 2 ml of acetonitrile, the sample was eluted with 1.2 ml of methanol containing 0.1% of perchloric acid. The solvent was distilled off and the residue was dissolved in 200 μl of a 0.1% acetic acid aqueous solution/methanol mixture (2/1, V/V). 50 to 100 μl thereof was injected into an instrument for HPLC for determination. Separately, blood plasma containing known amounts of compound (IX) and IS was treated to prepare an addition/recovery calibration curve. The concentration was determined from the ratio of the peak height of compound (IX) to that of IS. The detection limit in this method was 0.05 ng/ml of plasma.
as §2
A HPLC pump used was CCPD mfd. by Toyo Soda Mfg. Co., Ltd. 1.35 ml/min of an aqueous solution containing 0.1% of perchloric acid and 0.01% of a disodium ethylenediaminetetraacetate/methanol mixture 80:9 (V/V) was introduced therein. The sample was injected into the instrument with a WISP 710B auto-sampler mfd. by Waters at intervals of about 50 minutes. A reversed phase ODS-120 T column (4.6×250 mm) with a prefilter was used as the analysis column. The detector used was an ECD-100 electrochemical detector mfd. by Acome. The voltage was +650 mV (against a SEC electrode).

[3] = 3 mg/kg oral + ascorbic acid 3 mg/kg (1:1)
[4] = 3 mg/kg oral + ascorbic acid 9 mg/kg (1:3)
[5] = 3 mg/kg oral + ascorbic acid 15 mg/kg (1:5)
[6] = 3 mg/kg oral + citric acid 15 mg/kg (1:5)
[7] = 3 mg/kg oral + tartaric acid 15 mg/kg (1:5)
[8] = 3 mg/kg oral, no organic acid (control)
[9] = 3 mg/kg oral + L-aspartic acid 15 mg/kg, n=2
[10] = 3 mg/kg oral + L-cysteine 15 mg/kg, n=2
[11] = 3 mg/kg oral, none (control), n=4

Addition effect ratio ([1]; 3 mg/kg oral + ascorbic acid 3 mg/kg (1:1), AUC ratio to no additive): 1.9
Addition effect ratio ([1]; 3 mg/kg oral + ascorbic acid 9 mg/kg (1:3), AUC ratio to no additive): 4.8
increase of AUC value vs no added acid ([1]; 3 mg/kg oral + ascorbic acid 15 mg/kg): 7 -fold
Addition effect ratio ([1]; 3 mg/kg oral + ascorbic acid 15 mg/kg (1:5), AUC ratio to no additive): 7.0
Addition effect ratio ([1]; 3 mg/kg oral + citric acid 15 mg/kg (1:5), AUC ratio to no additive): 3.3
Addition effect ratio ([1]; 3 mg/kg oral + tartaric acid 15 mg/kg (1:5), AUC ratio to no additive): 2.7
Addition effect ratio ([1]; 3 mg/kg oral, no organic acid, base): 1.0
AUC(0-t) at 6 h [1, 3]: 28.4 ± 6.5 ng·h/mL
Cmax [1, 3]: 33.8 ± 13.2 ng/mL
Tmax [1, 3]: 34 min
AUC(0-t) at 6 h [1, 4]: 72.6 ± 18.5 ng·h/mL
Cmax [1, 4]: 187 ± 91.7 ng/mL
Tmax [1, 4]: 43 min
AUC(0-t) at 6 h [1, 5]: 107 ± 14.6 ng·h/mL
Cmax [1, 5]: 139 ± 20.9 ng/mL
Tmax [1, 5]: 55 min
AUC(0-t) at 6 h [1, 6]: 50.7 ± 16.5 ng·h/mL
Cmax [1, 6]: 87.4 ± 30.2 ng/mL
Tmax [1, 6]: 29 min
AUC(0-t) at 6 h [1, 7]: 40.4 ± 7.8 ng·h/mL
Cmax [1, 7]: 61.5 ± 26.3 ng/mL
Tmax [1, 7]: 45 min
AUC(0-t) at 6 h [1, 8]: 15.2 ± 2.8 ng·h/mL
Cmax [1, 8]: 21 ± 5.3 ng/mL
Tmax [1, 8]: 44 min
increase of AUC value vs no added acid ([1]; with citric acid): 3.3 -fold
increase of AUC value vs no added acid ([1]; with tartaric acid): 2.7 -fold
Addition effect (AUC ratio) ([2]; 3 mg/kg oral + L-aspartic acid 15 mg/kg): 2.46
Addition effect (AUC ratio) ([2]; 3 mg/kg oral + L-cysteine 15 mg/kg): 1.59
Addition effect (AUC ratio) ([2]; 3 mg/kg oral, none (control)): 1.00
effect relative to that obtained by adding tartaric acid ([2]; L-cysteine and L-aspartic acid): ~2.7 times
AUC(0-t) at 8 h [2, 9]: 37.5 ± 0.2 ng·h/mL
Cmax [2, 9]: 48.2 ± 2.5 ng/mL
Tmax [2, 9]: 45 ± 15 min
AUC(0-t) at 8 h [2, 10]: 24.4 ± 1 ng·h/mL
Cmax [2, 10]: 15.3 ± 2.7 ng/mL
Tmax [2, 10]: 70.2 ± 50.4 min
Cmax [2, 11]: 21 ± 5.3 ng/mL
Tmax [2, 11]: 43.8 ± 16.8 min
increase of AUC value ([2]; with L-aspartic acid): 2.46 -fold
increase of AUC value ([2]; with L-cysteine): 1.59 -fold
SMILES: Oc1ccc([C@@H]2CNC[C@H]2c2cccc(O)c2Cl)cc1O (relative stereo) [compound (IX)]
